Data on two compounds can be found in patent publication US20240041042A1, “1-(PYRIDYL)-5-AZINYLPYRAZOLE DERIVATIVES, AND THEIR USE FOR CONTROL OF UNDESIRED PLANT GROWTH” (Bayer Aktiengesellschaft, priority 2020, published 2024).

Where two headings read alike, the source gives them in different places.

What all share (type): in vivo
In data set [1] the test system is Zea mays (ZEAMX). The conditions noted are these: crop plant compatibility, effect vs untreated controls. The method, boiled down: (§1)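 Visual rating (% effect vs. untreated plants; 100% = plant death) made about 3 weeks after treatment. Plants had been sprayed at one-leaf stage, 2–3 weeks post-sowing, with aqueous WP/EC preparations containing 0.5% additive, 600 l/ha water volume; a, b, c mark dose levels.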

A further data set concerns Oryza sativa (ORYSA). The note with it: crop plant compatibility, effect in comparison to untreated controls. Summed up: as §1
In data set [2] the test system is Viola tricolor (VIOTR). Briefly: Post-emergence herbicidal action against VIOTR. The conditions noted are these: 320 g/ha. The method, boiled down: (§2)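 Rates were 320 g/ha or below, applied as aqueous WP/EC spray with 0.5% additive (600 l/ha) onto one-leaf-stage plants. About 3 weeks later in the greenhouse, damage was scored visually against untreated plants on a 0–100% scale, where 100% means plants died.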

For data set [3], the system named is Alopecurus myosuroides (ALOMY). Description: Post-emergence herbicidal action against ALOMY. The conditions noted are these: 320 g/ha, visual rating about 3 weeks after treatment vs untreated controls (100% = plants have died, 0% = like control plants). Summed up: as §2
Data set [4] has as its system Alopecurus myosuroides (ALOMY). Description: Pre-emergence herbicidal action against ALOMY. The note with it: 320 g/ha; scored visually after about 3 weeks; 100% = plants have died. The method, boiled down: (§3)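 Greenhouse pot trial: seeds sown, soil-covered, sprayed before emergence with compound in water (0.5% additive; 600 l/ha; ≤320 g/ha). Scoring visual, ~3 weeks, 0–100% scale vs untreated.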

Data set [5] relates to Lolium rigidum (LOLRI). Briefly: Pre-emergence herbicidal action against LOLRI. The conditions noted are these: dosage 320 g/ha. Summed up: as §3
The test system of data set [6] is Polygonum convolvulus (POLCO). Briefly: Post-emergence herbicidal action against POLCO. The note with it: dosage 320 g/ha. Summed up:
as §2

The test system of data set [7] is Lolium rigidum (LOLRI). Description: Post-emergence herbicidal action against LOLRI. The note with it: dosage 320 g/ha. Summed up:
as §2

Data set [8] concerns Amaranthus retroflexus (AMARE). Description: Pre-emergence herbicidal action against AMARE. The note with it: 320 g/ha, visual scoring after about 3 weeks vs untreated controls. The method, boiled down: as §3
The subject of data set [9] is Viola tricolor (VIOTR). Description: Pre-emergence herbicidal action against VIOTR. The conditions noted are these: 320 g/ha, Viola tricolor. The method, boiled down:
as §3

Data set [10] deals with Digitaria sanguinalis (DIGSA). Briefly: Pre-emergence herbicidal action against DIGSA. The note with it: dosage 320 g/ha. Summed up: as §3
The test system of another data set is Glycine max (GLXMA). The note with it: pre-emergence, 80 g/ha, crop plant compatibility, in comparison to untreated controls. Summed up: (§4)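 Scoring: visual, % of untreated control, about 3 weeks after a pre-emergence application to the soil surface. Application used WP or EC formulations diluted in water with 0.5% additive at 600 l/ha; dosage levels are marked by suffixes a, b and c.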

In data set [11] the test system is Amaranthus retroflexus (AMARE). Briefly: Post-emergence herbicidal action against AMARE. The method, boiled down: as §2
The subject of data set [12] is Setaria viridis (SETVI). Briefly: Pre-emergence herbicidal action against SETVI. The conditions noted are these: dosage 320 g/ha. The method, boiled down: as §3
The subject of data set [13] is Avena fatua (AVEFA). Description: Pre-emergence herbicidal action against AVEFA. The note with it: 320 g/ha, visual scoring after about 3 weeks vs untreated controls. Summed up: as §3
Data set [14] concerns Matricaria inodora (MATIN). Description: Pre-emergence herbicidal action against MATIN. The method, boiled down:
as §3

Data set [15] deals with Verconica persica (VERPE). Briefly: Post-emergence herbicidal action against VERPE. The conditions noted are these: 320 g/ha, VERPE. Summed up:
as §2

Data set [16] deals with Setaria viridis (SETVI). Description: Post-emergence herbicidal action against SETVI. The note with it: dosage 320 g/ha. The method, boiled down: as §2
The test system of data set [17] is Echinochloa crus-galli (ECHCG). Briefly: Post-emergence herbicidal action against ECHCG. The note with it: dosage 320 g/ha. Summed up:
as §2

In data set [18] the test system is Avena fatua (AVEFA). Description: Post-emergence herbicidal action against AVEFA. The conditions noted are these: 320 g/ha, visual rating about 3 weeks after treatment. Summed up: as §2
For data set [19], the system named is Zea mays (ZEAMX). The note with it: pre-emergence, 80 g/ha, crop plant compatibility, in comparison to untreated controls. Summed up:
as §4

With `C[C@@H](Oc1nn(-c2ccccn2)c(-c2ccc(Cl)nc2)c1Br)C(=O)O` [Example I-240], the results for the “Post-emergence action against ZEAMX in %” value in the data set with Zea mays (ZEAMX) [1] (80 g/ha) and with Zea mays (ZEAMX) [1] (320 g/ha) were 10% and 20%, respectively. For the same compound, the “Post-emergence action against ORYSA in %” value in the data set with Oryza sativa (ORYSA) (80 g/ha) and in the data set with Oryza sativa (ORYSA) (320 g/ha) was 0% in each case. In the data set with Viola tricolor (VIOTR) [2], the “Post-emergence action against VIOTR in %” value came to 80%. The “Post-emergence action against ALOMY in %” value in data set [3] was 80%. The “Pre-emergence action against ALOMY” value in [4] is given as 90%. Also, the “Pre-emergence action against LOLRI in %” value in the data set with Lolium rigidum (LOLRI) [5] worked out at 90%. Further, the “Post-emergence action against POLCO in %” value in [6] stood at 80%. The “Post-emergence action against LOLRI in %” value in the data set with Lolium rigidum (LOLRI) [7] is reported as 80%. Further, the “Pre-emergence action against AMARE in %” value in data set [8] is on record as 90%. Also, the “Pre-emergence action against VIOTR in %” value in the data set with Viola tricolor (VIOTR) [9] came to 90%. Besides, the “Pre-emergence action against DIGSA in %” value in data set [10] was 90%. Also, the “Pre-emergence action against GLXMA in %” value with Glycine max (GLXMA) is 20%.

For `C[C@@H](Oc1nn(-c2ncccc2F)c(-c2ccc(F)nc2)c1F)C(=O)O` [Example I-306], in the data set with Oryza sativa (ORYSA) (80 g/ha), the “Post-emergence action against ORYSA in %” value is 0%. Besides, the “Post-emergence action against AMARE in %” value in [11] (80 g/ha, visual rating about 3 weeks after treatment vs untreated controls (100% = plants have died, 0% = like control plants)) was 80%; in data set [11] (320 g/ha, visual rating about 3 weeks after treatment), 80%. The “Pre-emergence action against SETVI in %” value with Setaria viridis (SETVI) [12] was found to be 80%. Also, the “Post-emergence action against VIOTR in %” value in the data set with Viola tricolor (VIOTR) [2] was found to be 80%. In data set [3], the “Post-emergence action against ALOMY in %” value is reported as 100%. Besides, the “Pre-emergence action against ALOMY” value in data set [4] is listed as 90%. In addition, the “Pre-emergence action against AVEFA in %” value in the data set on Avena fatua (AVEFA) [13] is given as 80%. In addition, the “Pre-emergence action against LOLRI in %” value with Lolium rigidum (LOLRI) [5] amounted to 100%. The “Pre-emergence action against MATIN in %” value in [14] (dosage 80 g/ha) and in data set [14] (dosage 320 g/ha) was 90% throughout. Further, the “Post-emergence action against VERPE in %” value in data set [15] is on record as 90%. For the same compound, in data set [6], the “Post-emergence action against POLCO in %” value worked out at 80%. In addition, in the data set on Setaria viridis (SETVI) [16], the “Post-emergence action against SETVI in %” value stood at 90%. Also, the “Post-emergence action against ECHCG in %” value in data set [17] worked out at 90%. The “Post-emergence action against LOLRI in %” value in the data set with Lolium rigidum (LOLRI) [7] is recorded as 90%. Moreover, the “Pre-emergence action against AMARE in %” value in [8] worked out at 90%. Besides, in the data set with Avena fatua (AVEFA) [18], the “Post-emergence action against AVEFA in %” value came to 80%. Moreover, in the data set on Viola tricolor (VIOTR) [9], the “Pre-emergence action against VIOTR in %” value came to 80%. Further, in the data set with Zea mays (ZEAMX) [19], the “Pre-emergence action against ZEAMX in %” value came out at 20%. In addition, the “Pre-emergence action against GLXMA in %” value in the data set with Glycine max (GLXMA) is recorded as 0%.
